Laboratory results published in article PMC8959600 (eLife, 2022).

Key:
[1] = system: clinical isolates of Shigella; experiment: MIC by micro dilution, clinical Shigella isolates from Vietnam and Kenya; assay type: cell-based, Shigella spp.; conditions: all clinical isolates of Shigella (82 Vietnam, 53 Kenya)
Description: Selected compounds, including Tebipenem, were profiled against a panel of […] clinical isolates of enteric pathogens comprised of Shigella (Vietnam and Kenya; n = 135), non-typhoidal Salmonella (Vietnam; n = 117), Campylobacter (Vietnam; n = 75), and various pathogenic E. coli species (Vietnam; n = 7) ([Butcher et al., 2014]). The antimicrobial susceptibility profile of these organisms is described in Supplementary file 1.
Compound screening and dose response assays have been described previously ([Van Voorhis et al., 2016]; [Wiegand et al., 2008]). Briefly, the selected bacteria were cultured on the Luria-Bertani agar overnight at 37 °C (Campylobacter isolates were grown in 2.5% Laked Horse Blood cation-adjusted Mueller Hinton medium (CAMHB, Sigma Aldrich) and incubated in microaerophilic conditions (10% CO2, 5% O2 and 85% N2) at 42 °C); colonies were added to sterile PBS to form 0.5 McFarland solutions. […] The activity of the chemical was recorded as being active (yes) or non-active (no) for each of the tested chemicals. A non-active result was recorded when there was no evidence of bacterial inhibition, and the culture area was indistinguishable from the negative control.
MICs were evaluated using the micro dilution assay in Müller Hinton broth using 1 mM chemical stock solutions, and a final concentration of 5 × 10^5 CFU/mL bacteria. […]

Shigella (Sf2457T) = experiment: Checkerboard synergy assay (FIC), laboratory isolate; assay type: cell-based, Shigella flexneri
Experimental: (§1) Before initiating drug combination assays, the MIC values for both compounds were determined against Shigella (Sf2457T), Salmonella (St14028), and E. coli (EcDH5a) isolates. […] 20 μM moxifloxacin was used as negative control (100% bacterial growth inhibition) in one column and DMSO as positive control (100% bacterial growth). A total of 25 µl of 1 × 10^6 CFU/mL bacterial culture was added to each well of a 384-well plate (μClear; Greiner Bio‐One). Plates were incubated overnight at 37 °C. Next, 10 µl of resazurin were added and plates were incubated at room temperature for 3 hr. Bacterial growth inhibition was measured by fluorescence in a Envision plate reader (PerkinElmer). All assays were performed in duplicate. Combination studies with clinical isolates were performed in 96-well plates (Greiner) adding 200 μl of 1 × 10^6 CFU/mL bacterial culture and following the same checkboard titration method as described above. The range of final working concentrations of each antimicrobial was adjusted based on the MIC of each selected organism.
(§2) MICs were determined for drug A and drug B alone and in combination. […] The sum of FIC was expressed using the following equation: FIC = (MIC of drug A in combination / MIC of drug A alone) + (MIC of drug B in combination / MIC of drug B alone) ([Le Minh et al., 2015]; [Petersen et al., 2006]; [Hall et al., 1983]; [European Committee for Antimicrobial Susceptibility Testing (EUCAST) of the European Society of Clinical Microbiology and Infectious Dieases (ESCMID), 2000]).

Salmonella (St14028) = experiment: as above; assay type: cell-based, S. Typhimurium
Experimental: as §1, §2

[2] = system: enteric pathogens (Salmonella spp., Shigella spp., K. pneumoniae, and E. coli); experiment: Checkerboard synergy assay (FIC), Gram-negative MDR clinical isolates; assay type: cell-based; conditions: Tebipenem/LpxC inhibitor combination, all tested enteric pathogens
Experimental: as §1
MICs were determined for drug A and drug B alone and in combination. […]

[3] = Intestinal distribution by MALDI imaging in mice; assay type: in vivo; conditions: 60 min after oral pro-drug
Experimental: One animal was euthanised at 0.25, 0.5, 1, and 4 hr respectively and 2.5–3 cm sections of the intestine (duodenum, jejunum, ileum, caecum, and colon) were collected and frozen at –80 °C. For quantitative LCMS analysis of intestine homogenate, samples were thawed at ambient temperature, mixed with water (1:1) and homogenised by turrax (10 sec). Subsequently, 20 µL of homogenate were mixed with 200 µl of ACN: MeOH (80:20) and filtered using 0.2 µm filter plate (Whatman). LCMS analysis was performed as described in previous section. For MALDI imaging, 50 mm of the central part of each intestinal section were cut and mounted in a sample disc on dry ice with a solution of 1% methylcellulose (Sigma Aldrich, UK). Next, tissue sections of 12 µm (sagital sections) were obtained using a cryostat (Leica CM3600; Leica Microsystems Inc, Wetzlar, Germany) at –20 °C and collected in conductive-coated slides for MALDI Imaging (Bruker Daltonic). After the ‘MALDI’ section was obtained a consecutive section for histology was taken. Prior to matrix coating, samples for MALDI were optical scanned in a PathScanner. The matrix deposition was conducted in a sprayer ImagePrep System (Bruker Daltonic) which uses vibrational vaporisation technology. As matrix solution α-CHCA (α-Cyano-4-hydroxycinnamic acid (Sigma Aldrich) dissolved in 70:30 methanol/water (v/v) containing 0.2% TFA at 7 mg/mL was used. MALDI MSI data were obtained using a Bruker UltrafleXtream MALDI TOF/TOF (Bruker Daltonic, Germany)).
Both compounds were analysed in positive mode using a LIFT method. For Tebipenem, parent compound was 384.32 and the detection mass window between m/z 0–400. 298.164 were the most intensive fragment. […] We used a laser shut at 85% power with a 50 μm step size, 100 times at raster spot in random wak mode. FlexImaging 4.1(bruker Daltoninc, Germany) were used for the data visualisation. […]
MALDI Imaging is not a quantitative technique, therefore, the colour scale of images is relative to the maximum intensity (100 corresponds with the maximal signa in each slide). […]

[4] = paediatric population, Tebipenem-Pivoxil PO; ref Sato et al., 2008; cited from earlier work
[5] = in combination with LpxC inhibitor PF-5081090
[6] = in combination with azithromycin
[7] = in combination with ceftriaxone
[8] = in combination with ciprofloxacin

C[C@@H](O)[C@H]1C(=O)N2C(C(=O)O)=C(SC3CN(C4=NCCS4)C3)[C@H](C)[C@H]12 [Tebipenem]
MIC values, range [1]: 0.04 to 0.3 µM
interaction (FIC index) (Shigella (Sf2457T); [5]): partial synergy
reduction of the MIC against Tebipenem (Shigella (Sf2457T); [5]): > 10 fold
interaction (FIC index) (Shigella (Sf2457T); [6]): partial synergy
interaction (FIC index) (Shigella (Sf2457T); [7]): indifference or partial synergy
interaction (FIC index) (Shigella (Sf2457T); [8]): indifference or partial synergy
interaction (FIC index) (Shigella (Sf2457T); in combination with mecillinam): indifference or partial synergy
interaction (FIC index) (Salmonella (St14028); [5]): partial synergy
reduction of the MIC against Tebipenem (Salmonella (St14028); [5]): > 10 fold
interaction (FIC index) (Salmonella (St14028); [6]): partial synergy
interaction (FIC index) (Salmonella (St14028); [7]): indifference or partial synergy
interaction (FIC index) (Salmonella (St14028); [8]): indifference or partial synergy
interaction (FIC index) (Salmonella (St14028); in combination with mecillinam): indifference or partial synergy
interaction (FIC index) [2]: indifference or partial synergy
MALDI detection in the intestinal lumen [3]: could be detected in the lumen and enterocytes throughout the gut
AUC0-tlast [4]: 16000 ng·h/mL
Cmax [4]: 7500 ng/mL
